Results taken from US10487313B2, “Efficient induction of definitive endoderm from pluripotent stem cells” (Novo Nordisk A/S, priority 2011, dated 2019).

B1: Wnt3a: the Wnt receptor ligand Wnt3a (protein, UniProt P56704 19-352, looked up)
Protein Wnt-3a: SYPIWWSLAVGPQYSSLGSQPILCASIPGLVPKQLRFCRNYVEIMPSVAEGIKIGIQECQHQFRGRRWNCTTVHDSLAIFGPVLDKATRESAFVHAIASAGVAFAVTRSCAEGTAAICGCSSRHQGSPGKGWKWGGCSEDIEFGGMVSREFADARENRPDARSAMNRHNNEAGRQAIASHMHLKCKCHGLSGSCEVKTCWWSQPDFRAIGDFLKDKYDSASEMVVEKHRESRGWVETLRPRYTYFKVPTERDLVYYEASPNFCEPNPETGSFGTRDRTCNVSSHGIDGCDLLCCGRGHNARAERRREKCRCVFHWCCYVSCQECTRVYDVHTCK

Key:
hES SA121 cells = experiment: CHIR specificity: cell survival after 24 h pre-treatment prior to AA addition; assay type: cell-based, human; details: 24 h pre-treatment with BIO (0.5 μM) or AA alone (100 ng/ml), then AA
Protocol: (§1) hES SA121 and ChIPS4 cells were treated with either CHIR (3 μM), BIO (0.5 μM), Wnt3a (200 ng/ml) or AA alone (100 ng/ml) for 24 h prior to AA addition to show CHIR specificity (d1). Additionally, D'Amour (protocol as described in Kroon et al 2008) was tested in parallel.
The data clearly illustrated that PS transition (upregulation of Brachyury) and DE induction (upregulation of SOX17) were both accelerated and much higher after CHIR treatment compared to pretreatment with growth factors such as AA and Wnt3a.

[1] = system: SA121 hES and chIPS4 iPS cells; experiment: Quantitative real-time PCR of PS and DE markers (Brachyury, SOX17) during DE induction; assay type: cell-based, human; details: for Brachyury (PS) response timing compared to CHIR treatment: Wnt3a (200 ng/ml) or BIO (0.5 μM) 24 h instead of CHIR, upregulated D2
Protocol: Human embryonic stem (hES) cells SA121 and chIPS4 (Cellartis) were grown on human fibronectin (Sigma) in DEF culture media (Cellartis) with 30 ng/ml bFGF (Invitrogen) and 10 ng/ml Noggin (Peprotech) in 6-96 well plates. Cells were single cell passaged with Rock inhibitor Y-27632 (Calbiochem) and seeded at a density of 40000 cells/cm2 for experiments. Experiments were initiated 4 d after passage.
Confluent cultures were washed once in RPMI1640 (Invitrogen) before 24 hour pre-treatment with 0,5-7μM CHIR99021 (Stemgent) in RPMI. Control cells were left untreated in RPMI and D'Amour cells were either left in RPMI or treated with AA (Peprotech)+Wnt3a (R&D Systems) without pre-treatment depending on experimental setup.
After 24 hours, pretreated and control cells were washed once with RPMI before adding 100 ng/ml AA in RPMI. D'Amour cells were also treated with 100 ng/ml AA but with 0,2% FBS instead of B27. 24 h later, 2% B27 (Invitrogen) was added to the AA media for 2-3 d. Control cells were treated with B27 to prevent cell death and D'Amour cells with 2% FBS according to published protocol. Media was changed every day.
RNA samples were collected after 24 h pre-treatment (D1), after 1 day of AA treatment (D2) and after 1-2 d of AA+B27 treatment (D3-4). Total RNA was extracted with the Rneasy Plus Mini kit (Qiagen) and quantitative real-time PCR was performed using the StepOnePLus system (Applied Biosystems).
Undifferentiated SA121 hES and chIPS4 iPS cells in DEF media (DO) were cultured either in RPMI without CHIR (Ctrl D1) or treated for 24 h with CHIR in RPMI (CHIR D1). The cells were then washed to ensure absence of CHIR and then both conditions were treated with 1 d AA (Ctrl and CHIR d2). […] T fold inductions after 24 h CHIR treatment spanned between 500-100000 compared to undifferentiated cells (d0). T protein levels were also confirmed with ICC (FIG. 2C).
The efficiency levels for both T and SOX17 were highly robust (n>60) and confirmed with IHC and SOX17 quantifications (FIG. 2C and Table 2.). […] SOX17 expression peaked already after one day of AA treatment when cells were subjected to CHIR for 24 h before AA induction.
as §1
Chir was titrated at concentrations between 1-7 uM and analyzed after 24 h Chir treatment (D1) and after 2 d of following AA treatment (D3).

Row | Molecule | cell survival until day 3 (hES SA121 cells) | Brachyury (PS) response timing compared to CHIR treatment [1] | time of SOX17 induction peak after AA ([1]; CHIR-priming step 24 h then AA, versus AA alone)
1 | O=C1Nc2cc(Br)ccc2/C1=C1/Nc2ccccc2/C1=N\O [BIO] | did not survive until day 3 | delayed | 
2 | AA: Activin A, growth factor used for definitive endoderm induction | did not survive until day 3 |  | 3 to 4 days
3 | B1 |  | delayed | 
